Test results published in ChEMBL document CHEMBL5653603 (J Am Chem Soc, 2010).
One block for each compound: values may come before it. Active and inactive are the calls of the source. The calls are words filed in the database; no cut-off is given here.

Tests used:
Histone deacetylase 1 = Histone deacetylase 1 (Homo sapiens, UniProt Q13547); experiment: Inhibition of recombinant human HDAC1 using fluorogenic RHKKAc peptide as substrate by fluorescence assay; type: single protein
[1] = biological target: T1, Protein deacetylase HDAC6 (Homo sapiens, UniProt Q9UBN7); experiment: Inhibition of recombinant human HDAC6 using fluorogenic RHKKAc peptide as substrate by fluorescence assay
T1 sequence (Q9UBN7 whole entry): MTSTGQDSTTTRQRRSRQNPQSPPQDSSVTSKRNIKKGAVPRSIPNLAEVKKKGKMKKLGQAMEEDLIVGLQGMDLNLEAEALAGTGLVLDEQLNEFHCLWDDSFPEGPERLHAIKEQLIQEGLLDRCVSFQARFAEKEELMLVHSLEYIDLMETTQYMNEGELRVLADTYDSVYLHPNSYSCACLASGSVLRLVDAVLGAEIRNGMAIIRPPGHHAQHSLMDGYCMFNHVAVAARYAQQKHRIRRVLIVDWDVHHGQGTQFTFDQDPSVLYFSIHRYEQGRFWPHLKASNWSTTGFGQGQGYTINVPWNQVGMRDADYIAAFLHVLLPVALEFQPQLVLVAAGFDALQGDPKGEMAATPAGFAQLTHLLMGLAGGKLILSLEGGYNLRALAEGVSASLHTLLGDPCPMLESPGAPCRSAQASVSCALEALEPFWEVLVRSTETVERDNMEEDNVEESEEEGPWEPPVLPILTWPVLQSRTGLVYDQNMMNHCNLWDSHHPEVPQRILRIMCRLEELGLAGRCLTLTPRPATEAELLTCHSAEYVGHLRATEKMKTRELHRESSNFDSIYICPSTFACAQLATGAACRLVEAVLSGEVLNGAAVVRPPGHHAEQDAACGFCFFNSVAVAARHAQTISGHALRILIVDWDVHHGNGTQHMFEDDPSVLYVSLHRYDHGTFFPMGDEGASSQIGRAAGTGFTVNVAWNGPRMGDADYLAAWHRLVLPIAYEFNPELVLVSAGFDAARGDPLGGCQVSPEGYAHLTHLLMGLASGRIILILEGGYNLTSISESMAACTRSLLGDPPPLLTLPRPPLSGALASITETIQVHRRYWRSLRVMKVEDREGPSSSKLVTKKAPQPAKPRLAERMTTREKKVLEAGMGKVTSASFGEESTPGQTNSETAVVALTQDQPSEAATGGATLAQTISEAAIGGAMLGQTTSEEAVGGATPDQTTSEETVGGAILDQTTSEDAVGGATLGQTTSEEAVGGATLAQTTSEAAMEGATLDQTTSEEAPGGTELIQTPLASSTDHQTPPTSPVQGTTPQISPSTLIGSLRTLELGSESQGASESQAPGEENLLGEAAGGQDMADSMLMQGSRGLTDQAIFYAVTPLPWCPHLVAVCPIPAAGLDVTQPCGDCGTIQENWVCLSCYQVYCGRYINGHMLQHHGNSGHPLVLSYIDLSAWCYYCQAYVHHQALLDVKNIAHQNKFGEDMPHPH

Homo sapiens = species on record: Homo sapiens; experiment: Selectivity ratio of IC50 for recombinant human HDAC1 to IC50 for recombinant human HDAC6
Cortical neurone [2] = experiment: Neuroprotective activity against HCA-induced Sprague-Dawley rat primary cortical neuron death assessed as increase in neuron survival at 0.5 uM measured after 24 hrs by MTT assay; type: functional, cell-based
[3] = Neurotoxicity against Sprague-Dawley rat primary cortical neurons assessed as reduction in neuron survival at 1 to 10 uM measured after 24 hrs by MTT assay; type: toxicity, cell-based; details: cortical neurone, dose 1-10 µM
Primary cortical neuron = experiment: Inhibition of HDAC6 in Sprague-Dawley rat primary cortical neurons assessed as induction of alpha-tubulin hyperacetylation at 2.5 uM measured after 30 mins by Western blot analysis; type: cell-based
Cortical neurone [4] = experiment: Neuroprotective activity against HCA-induced Sprague-Dawley rat primary cortical neuron death assessed as increase in neuron survival measured after 24 hrs by MTT assay; type: functional, cell-based; details: dose 1-10 µM
[5] = Inhibition of class 1 HDAC in Sprague-Dawley rat primary cortical neurons assessed as induction of histone hyperacetylation at 10 uM measured after 30 mins by Western blot analysis; type: cell-based; details: primary cortical neuron, 0.5 h

Chain of Histone deacetylase 1 (Q13547 whole entry): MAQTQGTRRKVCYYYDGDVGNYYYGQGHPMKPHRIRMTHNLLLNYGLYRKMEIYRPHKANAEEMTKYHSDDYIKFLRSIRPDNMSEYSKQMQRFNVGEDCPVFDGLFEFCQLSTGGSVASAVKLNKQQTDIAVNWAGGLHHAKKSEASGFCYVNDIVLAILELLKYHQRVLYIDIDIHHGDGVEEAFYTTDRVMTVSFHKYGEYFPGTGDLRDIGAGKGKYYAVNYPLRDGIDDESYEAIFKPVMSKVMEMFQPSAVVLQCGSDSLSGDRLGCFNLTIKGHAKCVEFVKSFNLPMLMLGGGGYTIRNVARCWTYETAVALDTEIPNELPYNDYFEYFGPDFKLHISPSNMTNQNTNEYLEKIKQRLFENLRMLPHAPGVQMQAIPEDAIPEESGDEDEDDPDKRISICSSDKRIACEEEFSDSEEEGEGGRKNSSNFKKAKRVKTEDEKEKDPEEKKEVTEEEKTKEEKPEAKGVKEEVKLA

IC50 [1]: > 30 µM
Compound: O=C(NO)n1c2ccccc2c2ccccc21
IC50 (Histone deacetylase 1): > 30 µM

Compound: CN1CCc2c(c3ccccc3n2CCCCCC(=O)NO)C1
IC50 (Histone deacetylase 1): 25.2 µM | IC50 [1]: 0.213 µM

Compound: CN1CCc2c(n(Cc3ccc(C(=O)NO)cc3)c3ccccc23)C1
Ratio IC50 (Homo sapiens): 3700 | IC50 (Histone deacetylase 1): 5.18 µM | IC50 [1]: 0.001 µM

Compound: O=C(Cc1ccc(Cn2c3ccccc3c3ccccc32)cc1)NO
IC50 (Histone deacetylase 1): > 30 µM | IC50 [1]: 0.301 µM

Ratio IC50 (Homo sapiens): 574
Compound: O=C(NO)c1ccc(Cn2c3ccccc3c3ccccc32)cc1
IC50 (Histone deacetylase 1): 10.9 µM

IC50 [1]: 0.09 µM
Compound: O=C(CCCCCn1c2c(c3ccccc31)CCCC2)NO
IC50 (Histone deacetylase 1): 8.6 µM

Compound: O=C(CCCCCn1c2ccccc2c2ccccc21)NO
Ratio IC50 (Homo sapiens): 226 | IC50 (Histone deacetylase 1): 14 µM | IC50 [1]: 0.062 µM

Compound: CC(/C=C/C(=O)NO)=C\[C@@H](C)C(=O)c1ccc(N(C)C)cc1 [TRICHOSTATIN]
Activity (Cortical neurone [2]): Active | Activity [3]: Toxic

Compound: CN1CCc2c(n(CCCCCC(=O)NO)c3ccccc23)C1
IC50 (Histone deacetylase 1): > 30 µM | IC50 [1]: 0.55 µM

IC50 [1]: 0.18 µM
Compound: O=C(NO)c1ccc(CCn2c3ccccc3c3ccccc32)cc1
IC50 (Histone deacetylase 1): > 30 µM

Compound: O=C(CCCCCCC(=O)Nc1ccc([C@H]2O[C@@H](CSc3nc(-c4ccccc4)c(-c4ccccc4)o3)C[C@@H](c3ccc(CO)cc3)O2)cc1)NO
inhibition (Primary cortical neuron): Active

Compound: CN1CCc2c(c3ccccc3n2Cc2ccc(C(=O)NO)cc2)C1.O=C(O)C(F)(F)F
Activity (Cortical neurone [4]): Dose-Dependent Effect | inhibition (INH) [5]: Active | Activity [3]: Non-Toxic | inhibition (Primary cortical neuron): Active

Compound: O=C(CCn1c2ccccc2c2ccccc21)NO
IC50 (Histone deacetylase 1): > 30 µM
